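All cell lines were grown in 96-well plates and treated with compound for 48 hours. At the GI50, growth is halved.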 Active and inactive are the calls of the source. Rule as the data show it: active = GI50 up to about 1.1 µM and inactive = higher.
Legend:
Experiment in all cases: NCI-60 cell line screen, 48 h
[1] = tested on: 786-0
[2] = tested on: A498
[3] = tested on: ACHN
[4] = tested on: DLD-1
[5] = tested on: HCC 2998
[6] = tested on: HCT-116
[7] = tested on: HL-60
[8] = tested on: HOP-62
[9] = tested on: HT-29
[10] = tested on: IGROV-1
[11] = tested on: K562
[12] = tested on: M14
[13] = tested on: NCI-H460
[14] = tested on: OVCAR-3
[15] = tested on: SF-539
[16] = tested on: SK-MEL-2
[17] = tested on: SNB-75
[18] = tested on: TK-10
[19] = tested on: CAKI-1

Measured: GI50

CC(C)(C)C1CCN(C(=O)c2ccccc2)CC1
inactive: [1] > 100 µM | [2] > 100 µM | [3] > 100 µM | [4] > 100 µM | [5] > 100 µM | [6] 53.8 µM | [7] 32.9 µM | [8] > 100 µM | [9] > 100 µM | [10] > 100 µM | [11] 63.4 µM | [12] > 100 µM | [13] > 100 µM | [14] 36.8 µM | [15] > 100 µM | [16] > 100 µM | [17] 69 µM | [18] > 100 µM

O=C(CC(=O)c1cccc([N+](=O)[O-])c1)C(=O)Nc1nc([N+](=O)[O-])cs1
inactive: [1] > 100 µM | [2] > 100 µM | [19] 83.8 µM | [4] > 100 µM | [5] > 100 µM | [6] > 100 µM | [7] > 100 µM | [8] > 100 µM | [9] > 100 µM | [10] > 100 µM | [11] 94.8 µM | [12] > 100 µM | [13] > 100 µM | [14] > 100 µM | [15] > 100 µM | [16] > 100 µM | [18] > 100 µM

CCC(CC)n1cc(C(=O)NC(=O)NCCCCCOC(=O)CCCCCCCCCCC(=O)OCCCCCNC(=O)NC(=O)c2cn(C(CC)CC)c(=O)[nH]c2=O)c(=O)[nH]c1=O
inactive: [1] 45.8 µM | [2] > 100 µM | [3] > 100 µM | [19] > 100 µM | [4] > 100 µM | [5] > 100 µM | [6] > 100 µM | [7] > 100 µM | [8] > 100 µM | [9] > 100 µM | [10] > 100 µM | [11] > 100 µM | [12] > 100 µM | [13] > 100 µM | [14] > 100 µM | [15] 47.2 µM | [17] 22.8 µM | [18] > 100 µM

COC(=O)CCC(NC(=S)N/N=C/c1cccs1)C(=O)OC (stereo not drawn)
inactive: [1] > 100 µM | [2] > 100 µM | [3] > 100 µM | [4] > 100 µM | [5] > 100 µM | [6] > 100 µM | [7] > 100 µM | [8] > 100 µM | [9] > 100 µM | [10] > 100 µM | [11] > 100 µM | [12] > 100 µM | [13] > 100 µM | [14] > 100 µM | [15] > 100 µM | [16] > 100 µM | [17] > 100 µM | [18] > 100 µM

O=S(=O)(O)c1cc(S(=O)(=O)O)c2cc(/N=N/c3ccc(/N=N/c4ccc(/C=C/c5ccc(/N=[N+](/[O-])c6ccc(/C=C/c7ccc(/N=N/c8ccc(/N=N/c9ccc%10cc(S(=O)(=O)O)cc(S(=O)(=O)O)c%10c9)cc8)cc7S(=O)(=O)O)c(S(=O)(=O)O)c6)cc5S(=O)(=O)O)c(S(=O)(=O)O)c4)cc3)ccc2c1
inactive: [2] > 100 µM | [4] > 81.3 µM | [5] > 61.2 µM | [6] > 28.6 µM | [7] 54.1 µM | [8] > 100 µM | [9] > 55.1 µM | [10] > 100 µM | [11] > 100 µM | [13] > 40.3 µM | [14] > 31.6 µM | [15] > 59 µM | [16] 83.9 µM | [17] 35.8 µM

CC(C)(C)[C@H]1CC[C@@](O)(c2ccccc2)CC1.CC(C)(C)[C@H]1CC[C@](O)(c2ccccc2)CC1
inactive: [1] 18 µM | [2] 19.5 µM | [3] 20 µM | [4] 25.4 µM | [5] 26.5 µM | [6] 22.2 µM | [7] 16.3 µM | [8] 26.7 µM | [9] 16.2 µM | [10] 25.9 µM | [11] 15.2 µM | [12] 18.2 µM | [13] 27 µM | [14] 17.2 µM | [15] 18.1 µM | [16] 14.7 µM | [17] 24.3 µM | [18] 19.4 µM

From ChEMBL document CHEMBL1201862, “PubChem BioAssay data set” (2004)
